The assay concerns the target T1, acetylcholine-binding protein (AcAChBP) (Aplysia californica, UniProt Q8WSF8).
T1 sequence (Q8WSF8 20-236): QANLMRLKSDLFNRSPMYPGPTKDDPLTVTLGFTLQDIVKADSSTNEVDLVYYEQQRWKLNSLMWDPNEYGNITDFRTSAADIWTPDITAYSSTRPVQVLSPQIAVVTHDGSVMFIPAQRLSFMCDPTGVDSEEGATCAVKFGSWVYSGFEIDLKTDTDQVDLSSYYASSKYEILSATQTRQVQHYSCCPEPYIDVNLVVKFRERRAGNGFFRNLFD
Description: tryptophan fluorescence quenching.

Regarding `C[N+]1(C)CCc2cc3c(cc2[C@H]1[C@@H]1OC(=O)c2c1ccc1c2OCO1)OCO3` [N-methylbicuculline], the Kd is 1200 ± 100 nM.

What is called Kd is the concentration at which binding is half-saturated. A lower Kd goes with tighter binding.

For the origin of these results see paper PMC7611415 (Chembiochem : a European journal of chemical biology, 2020).
